Results as given in US8795630B2, “Butyrylcholinesterase ligands as diagnostic tools and treatment for diseases of the nervous system” (Treventis Corporation, priority 2008, dated 2014).

Assays:
BuChE [1] = molecular target: T1, BuChE (Homo sapiens, UniProt P06276); experiment: Michaelis-Menten constant and maximum reaction velocity measurement (Lineweaver-Burk plot); format: biochemical; conditions: room temperature, λ=285 nm, average, N=3
Method: In Example 55, Km and relative Vmax values were determined for compounds identified to be hydrolyzed by BuChE. The assay was carried out by mixing 1 uL of BuChE stock solution in 1.4 mL of phosphate buffer. Absorbance of this solution was calibrated to zero and the reaction commenced with the addition of 100 μL of a solution of ligand in 100% acetonitrile. The reactions were carried out at room temperature. The rate of change of absorbance (ΔA/min), reflecting the rate of hydrolysis of the ligand by enzyme was recorded every 3 seconds for a total of 36 seconds using a Milton-Roy uv-visible spectrophotometer set at λ=285 nm.
A Lineweaver-Burk plot was used in order to determine the Km (substrate concentration at which the reaction rate reaches half of its maximum value), and relative Vmax (maximum reaction velocity), values. Average Michealis-Menten constant and maximum reaction velocity values for a selection compounds (N=3) were measured, and the results are set forth in Table 1 below.

human recombinant AChE = human recombinant AChE (Homo sapiens, UniProt P22303); experiment: Acetylcholinesterase in vitro assay (hydrolysis of ligand followed by UV/Vis repetitive scans); format: biochemical; conditions: phosphate buffer pH 8.0; change of absorbance in repeated scans
Method: In Examples 23-28, the interaction of the ligands with AChE was determined by measuring the rate of hydrolysis of the ligand in a buffered solution containing the enzyme. AChE stock solution consisted of 240 μg of human recombinant AChE dissolved in 1.5 mL of 0.1% aq. Gelatin. All ligands used in the assay were dissolved in a minimal amount of acetonitrile to form a ligand solution. 0.1 M Phosphate buffer PH 8.0 consisted of 1.2 g of NaH2PO4 dissolved in 100 mL of water and adjusted to the appropriate pH. The Assay was carried out by mixing 0.1 μmole of ligand solution with 5 μL of AChE stock solution and bringing the volume in a quartz cuvette of 1 cm path length to 1.5 mL with phosphate buffer. Scans using an UltraSpec 2100 Pro UV/Visible spectrophotometer over a wavelength of 200-900 nm monitored the rate of hydrolysis of the ligand by the enzyme. Change of absorbance in the spectrum indicated hydrolysis of the ligand by the enzyme.

BuChE [2] = molecular target: T1, BuChE; experiment: Butyrylcholinesterase in vitro assay (hydrolysis of ligand followed by UV/Vis repetitive scans); format: biochemical; conditions: phosphate buffer pH 8.0; change of absorbance in repeated scans
Method: In Examples 39-54, interaction of the ligands with BuChE was determined by measuring the rate of the hydrolysis of the ligand in a buffered solution containing the enzyme. All ligands used in the assay were dissolved in a minimal amount of acetonitrile to form a ligand solution. 0.1 M Phosphate buffer PH 8.0 was prepared as to the above specifications. The Assay was carried out by mixing 0.1 μmol of ligand solution with 5 μL of BuChE stock solution and bringing the volume in a quartz cuvette of 1 cm path length to 1.5 mL with phosphate buffer. Scans using an UltraSpec 2100 Pro UV/Visible spectrophotometer over a wavelength of 200-900 nm monitored the rate of hydrolysis of the ligand by the enzyme. Change of absorbance in the spectrum indicated hydrolysis of the ligand by the enzyme. The results of these experiments generally indicate that enzymatic hydrolysis of the compounds does occur in the presence of BuChE.

[3] = SPECT imaging and brain fraction radiation counts after injection of radiolabeled compound; format: in vivo; conditions: rat; after injection and several hours of SPECT imaging; sacrificed and perfused
Method: Shortly after the synthesis and purification detailed in Example 21, a rat was injected with the radiolabeled compound (6-oxo-1,6-dihydropyridin-2-yl)methyl-4-^123iodobenzoate and SPECT images were taken at regular time points for several hours.
After imaging, the rat was sacrificed and perfused. Radiation counts from HPLC attributable to (1,6-dihydro-6-oxopyridin-2-yl)methyl 4-^123iodobenzoate remaining in the brain fraction are shown in FIG. 4.

T1 sequence (P06276 29-602): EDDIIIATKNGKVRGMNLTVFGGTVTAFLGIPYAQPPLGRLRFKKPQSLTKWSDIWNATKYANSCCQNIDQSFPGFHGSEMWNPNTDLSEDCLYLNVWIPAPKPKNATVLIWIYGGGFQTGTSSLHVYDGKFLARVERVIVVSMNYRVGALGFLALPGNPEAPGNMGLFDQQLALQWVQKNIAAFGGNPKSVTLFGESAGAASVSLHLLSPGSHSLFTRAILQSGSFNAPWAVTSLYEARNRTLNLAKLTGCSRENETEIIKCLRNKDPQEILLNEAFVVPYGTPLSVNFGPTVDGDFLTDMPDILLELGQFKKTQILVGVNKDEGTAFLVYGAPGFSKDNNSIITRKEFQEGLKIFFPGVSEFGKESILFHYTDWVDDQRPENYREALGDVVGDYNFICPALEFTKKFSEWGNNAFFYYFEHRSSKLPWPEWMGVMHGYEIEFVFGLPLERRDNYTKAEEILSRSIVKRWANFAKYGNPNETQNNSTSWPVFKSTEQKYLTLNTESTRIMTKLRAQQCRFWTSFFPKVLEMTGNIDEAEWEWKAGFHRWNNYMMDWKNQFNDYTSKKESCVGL
Chain of human recombinant AChE (P22303 32-614): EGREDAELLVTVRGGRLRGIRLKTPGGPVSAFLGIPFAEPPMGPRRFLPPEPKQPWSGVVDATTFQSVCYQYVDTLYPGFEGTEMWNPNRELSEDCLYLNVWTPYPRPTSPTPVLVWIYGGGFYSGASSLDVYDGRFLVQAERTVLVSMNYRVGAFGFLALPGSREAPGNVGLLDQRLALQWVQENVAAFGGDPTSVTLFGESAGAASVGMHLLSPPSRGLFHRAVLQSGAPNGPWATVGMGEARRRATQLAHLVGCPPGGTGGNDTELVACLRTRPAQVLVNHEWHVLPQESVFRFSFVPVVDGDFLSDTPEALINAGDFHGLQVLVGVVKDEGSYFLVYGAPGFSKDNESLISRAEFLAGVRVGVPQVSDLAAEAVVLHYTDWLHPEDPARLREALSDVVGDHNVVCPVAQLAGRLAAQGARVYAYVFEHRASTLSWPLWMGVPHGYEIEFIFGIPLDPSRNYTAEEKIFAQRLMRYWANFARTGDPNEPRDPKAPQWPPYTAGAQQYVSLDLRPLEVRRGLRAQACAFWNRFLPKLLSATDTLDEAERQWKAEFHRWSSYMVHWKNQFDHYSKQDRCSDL

SMILES | Km (BuChE [1]) [µM] | enzymatic hydrolysis of the compound in the presence of AChE (human recombinant AChE) | enzymatic hydrolysis of the compound in the presence of BuChE (BuChE [2]) | Vmax (relative maximum reaction velocity) (BuChE [1]) | brain penetration (radiation counts in brain fraction, FIG. 4) [3]
CCCC(=O)SCC[N+](C)(C)C [butyrylthiocholine, reference compound] | 30.6 ± 7 |  |  |  | 
O=C(OCc1ccc[nH]c1=O)c1ccc(I)cc1 [Example 1, (1,2-dihydro-2-oxopyridin-3-yl)methyl 4-iodobenzoate] |  | does not occur | does occur |  | 
CN1CC[C@@H](OC(=O)c2ccc(I)cc2)C1 [Example 16, R-1′-methylpyrrolidin-3′-yl 4-iodobenzoate] | 144 ± 121 | does not occur | does occur | 10 ± 9 ΔA min^−1 | 
O=C(OCc1cccc(=O)[nH]1)c1ccc(I)cc1 [Example 4, (1,6-dihydro-6-oxopyridin-2-yl)methyl 4-iodobenzoate] |  | does not occur | does occur | 9.7 ± 1.7 ΔA min^−1 | 
CN1CC[C@H](OC(=O)c2ccc(I)cc2)C1 [Example 14, (5)-1′-methylpyrrolidin-3′-yl 4-iodobenzoate] | 16 ± 4 | does not occur | does occur | 6.1 ± 0.5 ΔA min^−1 | 
CN1CCC(OC(=O)c2ccccc2)CC1 [1′-methylpiperidin-4′-yl benzoate] |  | does not occur | does occur |  | 
CN1CCC(OC(=O)c2cccc(C#N)c2)CC1 [1′-methylpiperidin-4′-yl 3-cyanobenzoate] |  | does not occur | does occur |  | 
CN1CCC(OC(=O)c2ccc(I)cc2)CC1 [Example 7, 1′-methylpiperidin-4′-yl 4-iodobenzoate] | 26 ± 2 | does not occur | does occur | 8.4 ± 0.4 ΔA min^−1 | 
CN1CCC(OC(=O)c2ccc(C#N)cc2)CC1 [1′-methylpiperidin-4′-yl 4-cyanobenzoate] |  | does not occur |  |  | 
CN1CC[C@H](OC(=O)c2ccc(C#N)cc2)C1 [Example 15, (S)-1′-methylpyrrolidin-3′-yl-4-cyanobenzoate] | 200 ± 52 | does not occur | does occur | 16 ± 4 ΔA min^−1 | 
CN1CCC(OC(=O)c2ccccc2)CC1 [Example 10, 1′-methylpiperidin-4′-yl benzoate] | 68 ± 9 |  |  | 6.8 ± 0.5 ΔA min^−1 | 
O=C(OCc1cccc(=O)[nH]1)c1ccc(F)cc1 [Example 5, (1,6-dihydro-6-oxopyridin-2-yl)methyl 4-fluorobenzoate] |  | does not occur | does occur |  | 
CN1CCC(OC(=O)c2ccc(F)cc2)CC1 [Example 8, 1′-methylpiperidin-4′-yl 4-fluorobenzoate] | 753 ± 115 | does not occur | does occur | 36 ± 6 ΔA min^−1 | 
O=C(OCc1cccc(=O)[nH]1)c1ccc([123I])cc1 [Example 21, (6-oxo-1,6-dihydropyridin-2-yl)methyl 4-^123iodobenzoate] |  |  |  |  | penetrates into the brain
CN1CCC(OC(=O)c2ccc(C#N)cc2)CC1 [Example 9, 1′-methylpiperidin-4′-yl 4-cyanobenzoate] | 48 ± 18 |  | does occur | 12 ± 3 ΔA min^−1 | 
O=C(OCc1ccc[nH]c1=O)c1ccc(F)cc1 [Example 2, (1,2-dihydro-2-oxopyridin-3-yl)methyl 4-fluorobenzoate] |  | does not occur | does occur |  | 
CN1CCC(OC(=O)c2cccc(I)c2)CC1 [1′-methylpiperidin-4′-yl 3-iodobenzoate] |  | does not occur | does occur |  | 
N#Cc1ccc(C(=O)OCc2ccc[nH]c2=O)cc1 [Example 3, (1,2-dihydro-2-oxopyridin-3-yl)methyl 4-cyanobenzoate] |  | does not occur | does occur |  | 
N#Cc1ccc(C(=O)OCc2cccc(=O)[nH]2)cc1 [Example 6, (1,6-dihydro-6-oxopyridin-2-yl)methyl 4-cyanobenzoate] |  | does not occur | does occur |  | 
CN1CC[C@@H](OC(=O)c2ccc(C#N)cc2)C1 [Example 17, R-1′-methylpyrrolidin-3′-yl-4-cyanobenzoate] | 198 ± 18 | does not occur | does occur | 30 ± 3 ΔA min^−1 | 
